# Tested on: YAP-TEAD
# Assay: TEAD inhibition, Hippo Pathway TEAD Reporter MCF-7 luciferase assay
# Format: cell-based
# Conditions: Homo sapiens, MCF7, 24 h, Hippo Pathway TEAD Reporter MCF-7 cells, luciferase activity after 24 h; read-out: IC50 of the test compounds on YAP-TEAD inhibition (Group)
# Experimental: TEAD inhibition was assayed using Hippo Pathway TEAD Reporter—MCF-7 cell line (BPS Bioscience, Catalog #: 60618) which contains firefly luciferase gene under the control of TEAD responsive elements. In the cell line, YAP1 remains in the nucleus inducing constitutive expression of luciferase reporter. Amount of expressed luciferase was detected using ONE-Glo Luciferase Assay System (Promega) and measuring plates with Enspire Multimode Plate Reader (PerkinElmer).
# Hippo Pathway TEAD Reporter—MCF-7 cells were plated on white/clear Poly-D-Lysine coated 384 plates (Corning #356660) at the density of 8500 cells/well. Next day test compounds (11 concentrations with 4 replicates) and DMSO control (0.1%) were added to the plate. After 24 h cells were lysed and luciferase activity was measured. The half maximal inhibitory concentration (IC50) of the test compounds on YAP-TEAD inhibition was determined.
row,Compound,IC50
1,"COc1ccc(COc2cccc(F)c2)cc1NC(=O)[C@H]1NC(=O)C[C@@H]1C (racemic) [Compound 6, rac-(trans)-N-(5-((3-Fluorophenoxy)methyl)-2-methoxyphenyl)-3-methyl-5-oxopyrrolidine-2-carboxamide]",301 to 2000 nM
2,"COc1ccc(COc2cccc(F)c2)cc1NC(=O)[C@H]1NC(=O)C[C@H]1C (racemic) [Compound 20, rac-(cis)-N-(5-((3-Fluorophenoxy)methyl)-2-methoxyphenyl)-3-methyl-5-oxo-pyrrolidine-2-carboxamide]",301 to 2000 nM
3,"COc1ccc(Oc2cccc(C(F)(F)F)c2)cc1NC(=O)[C@@H]1CCC(=O)N1C(C)=O (stereo in doubt) [Compound 30, 1-Acetyl-N-(2-methoxy-5-(3-(trifluoromethyl)phenoxy)phenyl)-5-oxo-pyrrolidine-2-carboxamide]",50 to 300 nM
4,"COc1ccc(Oc2ccc(C(F)(F)F)cc2)cc1NC(=O)[C@H]1CCC(=O)N1 (stereo in doubt) [Compound 45, N-(2-Methoxy-5-(4-(trifluoromethyl)phenoxy)phenyl)-5-oxopyrrolidine-2-carboxamide]",< 50 nM
5,"COc1ccc(Oc2ccc(C(F)(F)F)cc2)cc1NC(=O)[C@@H]1CCC(=O)N1 (stereo in doubt) [Compound 46, N-(2-Methoxy-5-(4-(trifluoromethyl)phenoxy)phenyl)-5-oxopyrrolidine-2-carboxamide]",301 to 2000 nM
6,"COc1cc(NC(=O)C2CCC(=O)N2C)cc(OC2CCC(F)(F)CC2)c1 (stereo in doubt) [Compound 275, (R)—N-(3-((4,4-Difluorocyclohexyl)oxy)-5-methoxyphenyl)-1-methyl-5-oxo-pyrrolidine-2-carboxamide]",50 to 300 nM
7,"COc1ccc(Oc2ccc(C(F)(F)F)cc2)cc1NC(=O)C1CCC(=O)N1 (centres unmarked) [Compound 1, N-(2-Methoxy-5-(4-(trifluoromethyl)phenoxy)phenyl)-5-oxo-pyrrolidine-2-carboxamide]",< 50 nM
8,"COc1ccc(Oc2cccc(F)c2)cc1NC(=O)C1CCC(=O)N1C(C)=O (centres unmarked) [Compound 2, 1-Acetyl-N-(5-(3-fluorophenoxy)-2-methoxyphenyl)-5-oxopyrrolidine-2-carboxamide]",301 to 2000 nM
9,"COc1ccc(COc2cccc(F)c2)cc1NC(=O)C1CCC(=O)N1C(C)=O (centres unmarked) [Compound 3, 1-Acetyl-N-(5-((3-fluorophenoxy)methyl)-2-methoxyphenyl)-5-oxopyrrolidine-2-carboxamide]",301 to 2000 nM
10,"COc1cc(OC)c(NC(=O)C2CCC(=O)N2)cc1COc1cccc(F)c1 (centres unmarked) [Compound 4, N-(5-((3-Fluorophenoxy)methyl)-2,4-dimethoxyphenyl)-5-oxopyrrolidine-2-carboxamide]",301 to 2000 nM
11,"COc1ccc(COc2cccc(F)c2)cc1NC(=O)C1CN(CCF)C1 [Compound 5, 1-(2-Fluoroethyl)-N-(5-((3-fluorophenoxy)methyl)-2-methoxyphenyl)azetidine-3-carboxamide]",301 to 2000 nM
12,"O=C1CC(C(=O)Nc2cccc(Oc3cccc(C(F)(F)F)c3)c2)N1 (centres unmarked) [Compound 7, 4-Oxo-N-(3-(3-(trifluoromethyl)phenoxy)phenyl)azetidine-2-carboxamide]",301 to 2000 nM
13,"COc1ccc(Oc2cccc(C(F)(F)F)c2)cc1NC(=O)C1CC(=O)N1 (centres unmarked) [Compound 8, N-(2-Methoxy-5-(3-(trifluoromethyl)phenoxy)phenyl)-4-oxoazetidine-2-carboxamide]",50 to 300 nM
14,"COc1ccc(Oc2cccc(C(F)(F)F)c2)cc1NC(=O)CC1CCC(=O)N1 (centres unmarked) [Compound 9, N-(2-Methoxy-5-(3-(trifluoromethyl)phenoxy)phenyl)-2-(5-oxopyrrolidin-2-yl)acetamide]",301 to 2000 nM
15,"COc1ccc(Oc2cccc(C(F)(F)F)c2)cc1NC(=O)C1CCC(=O)N1 (centres unmarked) [Compound 10, N-(2-Methoxy-5-(3-(trifluoromethyl)phenoxy)phenyl)-5-oxopyrrolidine-2-carboxamide]",50 to 300 nM
16,"COc1ccc(Oc2cccc(C(F)(F)F)c2)cc1NC(=O)C1CCC(=O)N1C (centres unmarked) [Compound 11, N-(2-Methoxy-5-(3-(trifluoromethyl)phenoxy)phenyl)-1-methyl-5-oxopyrro-lidine-2-carboxamide]",50 to 300 nM
17,"COc1ccc(Oc2cccc(C(F)(F)F)c2)cc1NC(=O)C1CCS(=O)(=O)C1 (centres unmarked) [Compound 12, N-(2-Methoxy-5-(3-(trifluoromethyl)phenoxy)phenyl)tetrahydrothiophene-3-carboxamide 1,1-dioxide]",301 to 2000 nM
18,"COc1ccc(COc2cccc(F)c2)cc1NC(=O)C1CCS(=O)(=O)N1C (centres unmarked) [Compound 13, N-(5-((3-Fluorophenoxy)methyl)-2-methoxyphenyl)-2-methylisothiazolidine-3-carboxamide 1,1-dioxide]",301 to 2000 nM
19,"COc1ccc(Oc2cccc(C(F)(F)F)c2)cc1NC(=O)C1(C)CCC(=O)N1 (centres unmarked) [Compound 14, N-(2-Methoxy-5-(3-(trifluoromethyl)phenoxy)phenyl)-2-methyl-5-oxopyrrolidi-ne-2-carboxamide]",301 to 2000 nM

row,Compound,IC50
1,"COc1ccc(Oc2cccc(F)c2)cc1NC(=O)C1(C)CCC(=O)N1 (centres unmarked) [Compound 15, N-(5-(3-Fluorophenoxy)-2-methoxyphenyl)-2-methyl-5-oxopyrrolidine-2-carboxamide]",301 to 2000 nM
2,"O=C1CCC(C(=O)Nc2cccc(Oc3cccc(C(F)(F)F)c3)c2)N1 (centres unmarked) [Compound 16, 5-Oxo-N-(3-(3-(trifluoromethyl)phenoxy)phenyl) pyrrolidine-2-carboxamide]",301 to 2000 nM
3,"O=C1CCC(C(=O)Nc2cc(COc3cccc(F)c3)cc3ccoc23)N1 (centres unmarked) [Compound 17, N-(5-((3-Fluorophenoxy)methyl)benzofuran-7-yl)-5-oxopyrrolidine-2-carboxamide]",50 to 300 nM
4,"COc1ccc(Oc2cccc(F)c2)cc1NC(=O)C12CCC(=O)N1CCS2 (centres unmarked) [Compound 18, N-(5-(3-Fluorophenoxy)-2-methoxyphenyl)-5-oxotetrahydropyrrolo[2,1-b]-thiazole-7a(5H)-carboxamide]",50 to 300 nM
5,"COc1ccc(Oc2cccc(C(F)(F)F)c2)cc1NC(=O)C12CCC(=O)N1CCS2 (centres unmarked) [Compound 19, N-(2-Methoxy-5-(3-(trifluoromethyl)phenoxy)phenyl)-5-oxotetrahydropyrrolo[2,1-b]thiazole-7a(5H)-carboxamide]",50 to 300 nM
6,"COc1ccc(/C=C/C2CCC(F)(F)CC2)cc1NC(=O)C1CCC(=O)N1 (centres unmarked) [Compound 21, (E)-N-(5-(2-(4,4-Difluorocyclohexyl)vinyl)-2-methoxyphenyl)-5-oxopyrroli-dine-2-carboxamide]",< 50 nM
7,"COc1ccc(/C=C/C2CCC(F)(F)CC2)cc1NC(=O)C1CCC(=O)N1C (centres unmarked) [Compound 22, (E)-N-(5-(2-(4,4-Difluorocyclohexyl)vinyl)-2-methoxyphenyl)-1-methyl-5-oxo-pyrrolidine-2-carboxamide]",< 50 nM
8,COc1ccc(/C=C/C2CCC(F)(F)CC2)cc1NC(=O)[C@H]1CCC(=O)N1C [Compound 23],< 50 nM
9,COc1ccc(/C=C/C2CCC(F)(F)CC2)cc1NC(=O)[C@@H]1CCC(=O)N1C [Compound 24],50 to 300 nM
10,"COc1ccc(Oc2cccc(F)c2)cc1NC(=O)[C@H]1CCC(=O)N1 [Compound 25, (R)—N-(5-(3-Fluorophenoxy)-2-methoxyphenyl)-5-oxopyrrolidine-2-carboxamide]",50 to 300 nM
11,"COc1ccc(COc2cccc(F)c2)cc1NC(=O)C1(C)CCNC1=O (centres unmarked) [Compound 26, N-(5-((3-Fluorophenoxy)methyl)-2-methoxyphenyl)-3-methyl-2-oxopyrrolidine-3-carboxamide]",301 to 2000 nM
12,"O=C1CCC(C(=O)Nc2cc(COc3cccc(F)c3)cc3c2OCO3)N1 (centres unmarked) [Compound 27, N-(6-((3-Fluorophenoxy)methyl)benzo[d][1,3]dioxol-4-yl)-5-oxopyrrolidine-2-carboxamide]",50 to 300 nM
13,"CN1C(=O)CCC1C(=O)Nc1cc(Oc2cccc(C(F)(F)F)c2)cc2ccoc12 (centres unmarked) [Compound 28, 1-Methyl-5-oxo-N-(5-(3-(trifluoromethyl)phenoxy)benzofuran-7-yl)pyrrolidine-2-carboxamide]",< 50 nM
14,"COc1ccc(Oc2cccc(C(F)(F)F)c2)cc1NC(=O)C1CCC(=O)N1C(C)=O (centres unmarked) [Compound 29, 1-Acetyl-N-(2-methoxy-5-(3-(trifluoromethyl)phenoxy)phenyl)-5-oxo-pyrrolidine-2-carboxamide]",50 to 300 nM
15,"O=C1CCC(C(=O)Nc2cc(COc3cccc(F)c3)cc3c2OCC3)N1 (centres unmarked) [Compound 31, N-(5-((3-Fluorophenoxy)methyl)-2,3-dihydrobenzofuran-7-yl)-5-oxopyrrolidine-2-carboxamide]",301 to 2000 nM
16,"CN1C(=O)CCC1C(=O)Nc1cc(COc2cccc(F)c2)cc2c1OCC2 (centres unmarked) [Compound 32, N-(5-((3-Fluorophenoxy)methyl)-2,3-dihydrobenzofuran-7-yl)-1-methyl-5-oxo-pyrrolidine-2-carboxamide]",50 to 300 nM
17,"O=C1CCC(C(=O)Nc2cc(Oc3cccc(C(F)(F)F)c3)cc3c2OCO3)N1 (centres unmarked) [Compound 33, 5-Oxo-N-(6-(3-(trifluoromethyl)phenoxy)benzo[d][1,3]dioxol-4-yl)pyrrolidine-2-carboxamide]",< 50 nM
18,"CN1C(=O)CCC1C(=O)Nc1cc(Oc2cccc(C(F)(F)F)c2)cc2c1OCO2 (centres unmarked) [Compound 34, 1-Methyl-5-oxo-N-(6-(3-(trifluoromethyl)phenoxy)benzo[d][1,3]dioxol-4-yl)-pyrrolidine-2-carboxamide]",50 to 300 nM
19,"COc1c(F)cc(COc2cccc(F)c2)cc1NC(=O)C1CCC(=O)N1C (centres unmarked) [Compound 35, N-(3-Fluoro-5-((3-fluorophenoxy)methyl)-2-methoxyphenyl)-1-methyl-5-oxo-pyrrolidine-2-carboxamide]",301 to 2000 nM

# From US20240246908A1 (ORION CORPORATION, priority 2021, published 2024)
